System: mouse bone marrow cells
Assay: Metabolism promoting action on mouse bone marrow cells (mitochondrial metabolism activity, MTT reduction method)
Type: cell-based, BALB/c mouse
Conditions: Mus musculus, Bone marrow cell, 120 h, 5 days, magnitude of metabolism, no test compound = one; for activity at 1.56 µg/mL: Test compound concentration 1.56 µg/ml; for activity at 3.13 µg/mL: Test compound concentration 3.13 µg/ml; for activity at 6.25 µg/mL: Test compound concentration 6.25 µg/ml; for activity at 12.5 µg/mL: Test compound concentration 12.5 µg/ml; for activity at 0.39 µg/mL: Test compound concentration 0.39 µg/ml; for activity at 0.78 µg/mL: Test compound concentration 0.78 µg/ml
From the text: The presence of an immunoactivating action can be determined if the magnitude of metabolism exceeds one, where the cellular metabolism of cells not having test compounds added thereto is defined as one.

Structure (SMILES) | activity at 1.56 µg/mL [%] | activity at 3.13 µg/mL [%] | activity at 6.25 µg/mL [%] | activity at 12.5 µg/mL [%] | activity at 0.39 µg/mL [%] | activity at 0.78 µg/mL [%]
COc1cc2c(c(OC)c1CC=C(C)C)CC(c1ccc(O[Si](C)(C)C(C)(C)C)cc1O[Si](C)(C)C(C)(C)C)CO2 (stereo not drawn) [B-12] | 122 | 122 | 129 | 136 | – | –
COc1cc(OC)c2c(c1)OCC(c1ccc(O)cc1O)C2 (stereo not drawn) [B-2] | 110 | 146 | 293 | 100 | 106 | 116
COc1cc2c(c(OC)c1CC=C(C)C)CC(c1ccc(O)cc1O)CO2 (stereo not drawn) [B-9] | 150 | 165 | 110 | 25 | 110 | 133
COc1cc2c(c(OC)c1CC=C(C)C)CC(c1ccc(OCc3ccccc3)cc1OCc1ccccc1)CO2 (stereo not drawn) [B-13] | 121 | 145 | 152 | 162 | – | –
COc1cc(OC)c2c(c1)OCC(c1ccc(O[Si](C)(C)C(C)(C)C)cc1O[Si](C)(C)C(C)(C)C)C2 (stereo not drawn) [B-6] | 120 | 144 | 173 | 156 | 100 | 103
COc1ccc(C2COc3cc(OC)cc(OC)c3C2)c(OC)c1 (stereo not drawn) [B-8] | 90 | 90 | 118 | 83 | 94 | 91
CCCCCCOc1cc2c(c(OC)c1CCC(C)C)CC(c1ccc(O)c(CCC(C)C)c1OCCCCCC)CO2 (stereo not drawn) [A-14] | 166 | 184 | 199 | 209 | 134 | 149
COc1c(CCC(C)C)c(O)cc2c1CC(c1ccc(OC(C)C)c(CCC(C)C)c1OC(C)C)CO2 (stereo not drawn) [A-20] | 135 | 134 | 116 | 94 | – | –
COc1c(CCC(C)C)c(O)cc2c1CC(c1ccc(O)c(CCC(C)C)c1OC(C)C)CO2 (stereo not drawn) [A-22] | 186 | 176 | 40 | 50 | – | –
COc1cc(O)c2c(c1)OCC(c1ccc(OCc3ccccc3)cc1OCc1ccccc1)C2 (stereo not drawn) [B-7] | 125 | 141 | 132 | 67 | 99 | 100
COc1cc2c(c(OC)c1C=CC(C)C)CC(c1ccc(O)cc1O)CO2 (stereo not drawn) [B-10] | 204 | 119 | 45 | 23 | 118 | 145
COc1cc(OC)c2c(c1)OCC(c1ccc(OCC=C(C)C)cc1OCC=C(C)C)C2 (stereo not drawn) [B-3] | 110 | 162 | 183 | 204 | 114 | 111
COc1c2c(cc(OC(C)C)c1CCC(C)C)OCC(c1ccc(O)c(CCC(C)C)c1OC(C)C)C2 (stereo not drawn) [A-21] | 131 | 122 | 89 | 44 | – | –
CCCCCCCCCOc1cc2c(c(OC)c1CCC(C)C)CC(c1ccc(O)c(CCC(C)C)c1OCCCCCCCCC)CO2 (stereo not drawn) [A-18] | 109 | 115 | 119 | 114 | 103 | 102
COc1c2c(cc(OC(C)C)c1CCC(C)C)OCC(c1ccc(O)c(CCC(C)C)c1O)C2 (stereo not drawn) [A-19] | 120 | 128 | 126 | 53 | – | –
CCCCCCCCCOc1ccc(C2COc3cc(O)c(CCC(C)C)c(OC)c3C2)c(OCCCCCCCCC)c1CCC(C)C (stereo not drawn) [A-17] | 126 | 164 | 177 | 156 | 116 | 117
COc1cc(OC)c2c(c1)OCC(c1ccc(OCc3ccccc3)cc1OCc1ccccc1)C2 (stereo not drawn) [B-1] | 136 | 157 | 188 | 178 | 114 | 116
COc1cc2c(c(OC)c1CCC(C)C)CC(c1ccc(O)cc1O)CO2 (stereo not drawn) [B-11] | 125 | 139 | 88 | 32 | 102 | 129
COc1cc(OC)c2c(c1)OCC(c1ccc(O)c(CC=C(C)C)c1O)C2 (stereo not drawn) [B-4] | 125 | 176 | 258 | 44 | 110 | 115
COc1cc(OC)c2c(c1)OCC(c1ccc(O)cc1OCC=C(C)C)C2 (stereo not drawn) [B-5] | 165 | 245 | 205 | 31 | 100 | 115

— patent EP1057825A1, “ISOFLAVANE DERIVATIVES AND IMMUNOPOTENTIATING COMPOSITIONS CONTAINING THE SAME” (SHIONOGI & CO., LTD., priority 1998, dated 1999)
